Literature values in patent US6262080A, “3-(thio-substitutedamido)-lactams useful as inhibitors of matrix metalloproteinase” (Avantis Pharmaceuticals Inc., priority 1999, dated 2001).

Test system: B16-BL6 murine melanoma
Conditions: intraperitoneal administration; lung colonies produced by intravenous injection of B16-BL6 murine melanoma in C57BL/6N mice

## CNC(=O)[C@H](Cc1ccccc1)NC(=O)[C@H](CC(C)C)[C@H](CSc1cccs1)C(=O)NO [batimastat]
  growth and metastatic spread and number of lung colonies: significant inhibition
